Values joined by “and” are separate entries in the source; they are usually repeats but may differ in a detail not shown here. Equal entries are not always repeated.
What was measured:
Type in all cases: biochemical
human FXa = human FXa (Homo sapiens, UniProt P00742); assay: Michaelis-Menten kinetics of Spectrozyme FXa hydrolysis by FXa; settings: for Km / VMAX of Spectrozyme FXa hydrolysis: pH 7.4, 37 °C
Protocol: The initial rate of Spectrozyme FXa hydrolysis by human FXa (87 nM) or that of Spectrozyme PL hydrolysis by human plasmin (120 nM) was monitored from the linear increase in absorbance at 405 nm corresponding to less than 10% consumption of the substrate. […] The data were fitted by Michaelis-Menten Equation (2) to determine KM (substrate affinity to the enzyme) and VMAX (maximum velocity of enzyme reaction). (2) Vi=VMAX×[S]/KM+[S]

human plasmin = human plasmin (Homo sapiens, UniProt P00747); assay: Plasmin chromogenic substrate hydrolysis assay; settings: Spectrozyme PL, pH 7.4, 37 °C
Sequence of human plasmin (P00747 581-810 limits assumed): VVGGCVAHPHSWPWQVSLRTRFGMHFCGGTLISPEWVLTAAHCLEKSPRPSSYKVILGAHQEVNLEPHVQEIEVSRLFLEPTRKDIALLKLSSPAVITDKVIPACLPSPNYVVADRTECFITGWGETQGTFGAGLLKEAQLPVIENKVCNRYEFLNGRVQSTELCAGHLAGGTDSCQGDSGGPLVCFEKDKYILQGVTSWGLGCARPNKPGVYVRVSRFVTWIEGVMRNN
Sequence of human plasmin (P00747 97-580 partner limits assumed): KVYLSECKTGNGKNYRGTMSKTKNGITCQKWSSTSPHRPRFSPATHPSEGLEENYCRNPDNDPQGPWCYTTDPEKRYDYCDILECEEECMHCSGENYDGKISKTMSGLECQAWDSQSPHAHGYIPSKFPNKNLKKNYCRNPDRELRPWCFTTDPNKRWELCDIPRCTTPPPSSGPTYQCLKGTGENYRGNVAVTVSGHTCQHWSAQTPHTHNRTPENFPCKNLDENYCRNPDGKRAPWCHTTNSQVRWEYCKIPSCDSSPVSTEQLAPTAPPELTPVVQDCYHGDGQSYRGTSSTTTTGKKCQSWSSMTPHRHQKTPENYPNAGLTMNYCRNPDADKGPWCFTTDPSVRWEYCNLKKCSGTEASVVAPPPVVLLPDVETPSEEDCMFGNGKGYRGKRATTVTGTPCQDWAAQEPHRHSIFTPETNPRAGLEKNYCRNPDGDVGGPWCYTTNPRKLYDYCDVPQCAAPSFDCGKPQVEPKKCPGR
Protocol: Direct inhibition of human FXa and α-thrombin of the common coagulation pathway and human plasmin of the fibrinolysis pathway were measured using the corresponding chromogenic substrate hydrolysis assays at 37 °C and pH 7.4, as reported earlier using the 96-microplate platform. […] After 10 min incubation, 5 µL Spectrozyme FXa (5 mM stock conc.) was rapidly added and the residual activity of FXa was measured from the initial rate of increase in absorbance at 405 nm. […] The concentration vs effect curve was constructed using logistic Equation (1) from which the potency (IC50) and efficacy (ΔY) of inhibition were also obtained.
For thrombin and plasmin, the assays were performed using substrates appropriate for each enzyme (Spectrozyme TH for thrombin and Spectrozyme PL for plasmin) under conditions closest to the physiological condition. The KM of the substrate for its enzyme was used to identify the concentration of the substrate to be used for inhibition studies. […] After 10 min incubation, 5 µL Spectrozyme TH (1.0 mM stock conc.) was rapidly added and the residual activity of thrombin was measured from the initial rate of increase in absorbance at 405 nm. […] After 10 min incubation, 5 µL Spectrozyme PL (1.0 mM stock conc.) was rapidly added and the residual activity of plasmin was measured from the initial rate of increase in absorbance at 405 nm. […] Buffer for assays was 20–50 mM Tris-HCl buffer, pH 7.4, containing 100–150 mM NaCl, 2.5 mM CaCl2, 0.1% PEG8000, and 0.02% Tween80. All assays were performed three times.

human FXIIIa = biological target: T1, human FXIIIa (Homo sapiens, UniProt P00488); assay: FXIIIa fluorescence-based transglutamination assay; settings: pH 7.4, 37 °C
T1 construct: followed by the addition of 2 μL human FXIIIa (0.3 μM); purchased Haematologic Technologies, Inc
T1 sequence (P00488 39-732 limits assumed): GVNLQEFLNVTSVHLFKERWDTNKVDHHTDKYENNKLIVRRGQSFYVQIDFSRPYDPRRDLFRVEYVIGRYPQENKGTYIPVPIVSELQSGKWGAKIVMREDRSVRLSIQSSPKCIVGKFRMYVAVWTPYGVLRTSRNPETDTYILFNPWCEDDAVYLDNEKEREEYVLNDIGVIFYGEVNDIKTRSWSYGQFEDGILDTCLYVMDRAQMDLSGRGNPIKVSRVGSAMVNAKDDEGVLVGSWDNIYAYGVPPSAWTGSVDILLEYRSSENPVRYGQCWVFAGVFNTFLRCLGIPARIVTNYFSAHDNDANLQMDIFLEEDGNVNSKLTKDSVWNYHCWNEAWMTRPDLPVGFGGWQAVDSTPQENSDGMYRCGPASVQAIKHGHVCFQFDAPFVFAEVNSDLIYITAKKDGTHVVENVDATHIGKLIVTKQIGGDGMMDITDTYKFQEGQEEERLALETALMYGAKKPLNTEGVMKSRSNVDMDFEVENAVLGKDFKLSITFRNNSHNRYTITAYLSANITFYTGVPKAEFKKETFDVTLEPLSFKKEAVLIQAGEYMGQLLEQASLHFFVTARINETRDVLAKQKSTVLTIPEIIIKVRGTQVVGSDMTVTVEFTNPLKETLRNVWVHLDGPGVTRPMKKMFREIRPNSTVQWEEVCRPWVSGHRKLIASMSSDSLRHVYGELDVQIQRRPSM
Protocol: Direct inhibition of the human coagulation transglutaminase FXIIIa was also studied using a fluorescence-based transglutamination assay as reported in the literature.
The activity of FXIIIa was evaluated by the addition of 5 μL dansylcadaverine (2 mM) and measuring the initial rate of increase in fluorescence emission (λEx. = 360 nm and λEm. = 490 nm). In all assays, the dose dependence of the fractional residual enzyme activity, if any, was analyzed using Equation (1) above to obtain the apparent concentration of the test molecule required to reduce the enzyme activity to 50% of its initial value. All assays were performed three times.

[1] = tested on: human plasma deficient of FVII; assay: APTT clotting assay, FVII-deficient plasma
Protocol: (§1) For the PT assay, thromboplastin-D was reconstituted according to the manufacturer’s directions and warmed to 37 °C. […] After incubation for 4 min at 37 °C, clotting was initiated by adding 100 μL of prewarmed 25 mM CaCl2 and the time to clotting was noted. […] To determine the in vitro effect on the APTT of deficient human plasmas, the APTT assay was repeated, using human plasmas deficient of factor VII (FVII), factor IX (FIX), FXI, or factor XII (FXII). […] The positive control used in APTT and PT assays was rivaroxaban, a clinically used FXa inhibitor. Under the conditions reported, rivaroxaban doubled the APTT and PT at concentrations of 0.123 ± 0.003 µM and 0.193 ± 0.043 µM, respectively.

[2] = tested on: human plasma deficient of FIX; assay: APTT clotting assay, FIX-deficient plasma
Protocol: as §1

normal human plasma = assay: APTT clotting assay, normal human plasma; settings: normal human plasma (text)
Protocol: as §1

Sequence of human FXa (P00742 235-488 limits assumed): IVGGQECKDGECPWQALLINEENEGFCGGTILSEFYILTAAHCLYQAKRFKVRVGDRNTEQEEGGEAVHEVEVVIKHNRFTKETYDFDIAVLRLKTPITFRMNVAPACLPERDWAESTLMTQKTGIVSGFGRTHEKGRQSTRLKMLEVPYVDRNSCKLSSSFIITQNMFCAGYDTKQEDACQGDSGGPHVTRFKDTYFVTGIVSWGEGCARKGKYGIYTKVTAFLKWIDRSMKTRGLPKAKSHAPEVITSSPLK
Sequence of human FXa (P00742 41-179 partner limits assumed): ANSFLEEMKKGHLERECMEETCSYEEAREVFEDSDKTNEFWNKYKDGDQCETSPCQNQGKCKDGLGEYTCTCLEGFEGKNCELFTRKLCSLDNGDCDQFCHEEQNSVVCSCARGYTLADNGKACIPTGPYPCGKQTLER

N=C(N)c1ccc(OCCCCCOc2ccc(C(=N)N)cc2)cc1 [pentamidine isethionate, 4,4′-(pentane-1,5-diylbis(oxy))-dibenzimidamide]
Km (human FXa; 5 µM pentamidine isethionate): 267 ± 21.2 µM
VMAX of Spectrozyme FXa hydrolysis (human FXa; 5 µM pentamidine isethionate): 114.3 ± 4.7 mAU/min
Km (human FXa; 10 µM pentamidine isethionate): 410 ± 18.2 µM
VMAX of Spectrozyme FXa hydrolysis (human FXa; 10 µM pentamidine isethionate): 124.2 ± 3.3 mAU/min
Km (human FXa; 20 µM pentamidine isethionate): 364 ± 36.6 µM
VMAX of Spectrozyme FXa hydrolysis (human FXa; 20 µM pentamidine isethionate): 63.1 ± 3.6 mAU/min
Km (human FXa; 50 µM pentamidine isethionate): 690 ± 63.1 µM
VMAX of Spectrozyme FXa hydrolysis (human FXa; 50 µM pentamidine isethionate): 60.3 ± 3.8 mAU/min
decrease of VMAX of Spectrozyme FXa hydrolysis (human FXa; inhibitor 50 μM vs absence): ~ 2.8 fold
increase of KM for Spectrozyme FXa (human FXa; inhibitor 50 μM vs absence): ~ 2.3 fold
HS (human plasmin): 1.1 ± 0.1
IC50 (human plasmin): ~8.4 µM and 8.4 µM
∆Y (efficacy) (human plasmin): 98.0 ± 3.3%
∆Y (efficacy) (human plasmin; listed as pentamidine): ~ 100%
IC50 (human FXIIIa): > 50 µM
APTTEC2×, concentration to double clotting time [1]: 26.71 ± 0.50 µm
APTTEC2×, concentration to double clotting time [2]: 26.32 ± 3.52 µm
concentration to double the APTT (normal human plasma): 27.88 ± 2.99 µM
concentration to double the APTT (normal human plasma; listed as pentamidine): lower than 50 µM

— paper PMC6600542 (Molecules, 2019)
